Experimental data: publication PMC6467875, “An experimentally validated approach to calculate the blood-brain barrier permeability of small molecules” (Scientific Reports, 2019)

Assays:
[1] = source not stated; cited from earlier work
[2] = Transwell permeability assay with iPSC-derived hBMECs; format: in vitro ADME; details: human, stem-cell derived hBMECs, obtained as part of this work
Procedure: To validate results from MD simulations, permeabilities for selected molecules were determined using the transwell assay with human induced pluripotent stem cell (iPSC)-derived hBMECs. […] Briefly, hBMECs were sub-cultured onto polyester 12-well transwell inserts with a 0.4 µm pore size (Corning) coated with 1:1 collagen IV (100 µg mL^−1, Sigma) and fibronectin (50 µg mL^−1, Sigma) at a density of 1 × 10^6 cells mL^−1 and allowed to reach confluence for another two days. Permeability experiments were performed only if the transendothelial electrical resistance (TEER) was in excess of 1500 Ω cm^2. Prior to permeability experiments, cells were washed with transport buffer (0.12 M NaCl, 25 mM NaHCO3, 3 mM KCl, 2 mM MgSO4, 2 mM CaCl2, 0.4 mM K2HPO4, 1 mM 4-(2-hydroxyethyl)-1-piperazineethanesulfonic acid (HEPES), and 0.1% human platelet poor derived serum) and 100 µL of the molecule of interest in transport buffer was introduced into the apical well.
Experimentally, solute permeabilities are determined using a transwell assay from the concentrations in the apical (luminal, CL) and basolateral (abluminal, CA) compartments after time t using:10 P=VA⋅CA/(t⋅S⋅CL), where VA is the volume of the basolateral compartment (see Supporting Material for details).

bovine BMECs = system: bovine BMECs; parameters: method as in Shah et al. 33; details: transwell, ref Shah et al. 33; cited from earlier work
red blood cells = system: red blood cells; parameters: method as in Brahm et al. 40; details: from rate constants km for transport into red blood cells, Papp = km/2; ref Brahm et al. 40; cited from earlier work
[3] = not told; cited from earlier work
[4] = from experiment; ref Atkinson, Berg, 1988; cited from earlier work
MDCKII cells = system: MDCKII cells; parameters: method as in Summerfield et al. 32; details: transwell, ref Summerfield et al. 32; cited from earlier work

SMILES: Cn1c(=O)c2c(ncn2C)n(C)c1=O [Caffeine]
- Dipole moment [1]: 3.65 D
- Papp A→B [2]: 21 ×10⁻⁶ cm/s

SMILES: OCC(O)CO [Glycerol]
- Dipole moment [1]: 2.56 D
- Papp (bovine BMECs): 9.5e-06 cm/s

SMILES: N [Ammonia]
- Dipole moment [1]: 1.47 D

SMILES: CCO [Ethanol]
- Dipole moment [1]: 1.69 D
- Papp (red blood cells): 0.0021 cm/s

SMILES: O=C=O [Carbon -dioxide, Carbon dioxide]
- Papp [3]: 1.6 ± 0.4 × 10^−1 cm/s
- Dipole moment [1]: 0 D

SMILES: CCC1(C)CC(=O)NC1=O (stereo not shown) [Ethosuximide]
- Log P, octanol-water partition coefficient [4]: 0.38
- Papp (MDCKII cells): 9.7e-06 cm/s

SMILES: CC(C)O [Isopropanol]
- Dipole moment [1]: 1.58 D
- Papp (red blood cells): 0.0065 cm/s
